Experimental data as given in patent US20050065062A1, “Method of formulating a pharmaceutical composition” (3M Innovative Properties Company, priority 2003, published 2005).
Where two headings read alike, the source gives them in different places.

Experiments:
[1] = Franz diffusion cell, membrane diffusion across hairless mouse skin; type: in vitro ADME; conditions: for relative order for membrane diffusion rate: ranking of excipients
Procedure: Diffusion of the compounds through hairless mouse skin into phosphate buffer in a Franz cell was carried out and measured as described in Example 1, with Sudan I being used in place of Fat Brown RR.

[2] = 0 h
[3] = Franz diffusion cell, membrane diffusion across poly(dimethylsiloxane) membrane; conditions: ranking of excipients
[4] = Table 3, saturated solution in alpha-terpineol, 0 hours
[5] = Table 3, saturated solution in alpha-terpineol, 24 hours
[6] = Table 3, saturated solution in isostearic acid, 0 hours
[7] = Table 3, saturated solution in isostearic acid, 24 hours
[8] = Table 3, saturated solution in propylene glycol, 0 hours
[9] = Table 3, saturated solution in propylene glycol, 24 hours
[10] = Table 3, saturated solution in tetraglycol, 0 hours
[11] = Table 3, saturated solution in tetraglycol, 24 hours

Oc1ccc2ccccc2c1N=Nc1ccccc1 [Sudan I]
CUMULATIVE AMOUNT OF COMPOUND DIFFUSED ACROSS SKIN [1, 4]: 0 μg/10 mL | CUMULATIVE AMOUNT OF COMPOUND DIFFUSED ACROSS SKIN [1, 5]: 72 μg/10 mL | CUMULATIVE AMOUNT OF COMPOUND DIFFUSED ACROSS SKIN ([1]; Table 3, saturated solution in alpha-terpineol, 50 hours): 201 μg/10 mL | CUMULATIVE AMOUNT OF COMPOUND DIFFUSED ACROSS SKIN ([1]; Table 3, saturated solution in alpha-terpineol, 59 hours): 259 μg/10 mL | CUMULATIVE AMOUNT OF COMPOUND DIFFUSED ACROSS SKIN [1, 6]: 0 μg/10 mL | CUMULATIVE AMOUNT OF COMPOUND DIFFUSED ACROSS SKIN [1, 7]: 38 μg/10 mL | CUMULATIVE AMOUNT OF COMPOUND DIFFUSED ACROSS SKIN ([1]; Table 3, saturated solution in isostearic acid, 50 hours): 118 μg/10 mL | CUMULATIVE AMOUNT OF COMPOUND DIFFUSED ACROSS SKIN ([1]; Table 3, saturated solution in isostearic acid, 59 hours): 149 μg/10 mL | CUMULATIVE AMOUNT OF COMPOUND DIFFUSED ACROSS SKIN [1, 8]: 0 μg/10 mL | CUMULATIVE AMOUNT OF COMPOUND DIFFUSED ACROSS SKIN [1, 9]: 31 μg/10 mL | CUMULATIVE AMOUNT OF COMPOUND DIFFUSED ACROSS SKIN ([1]; Table 3, saturated solution in propylene glycol, 50 hours): 108 μg/10 mL | CUMULATIVE AMOUNT OF COMPOUND DIFFUSED ACROSS SKIN ([1]; Table 3, saturated solution in propylene glycol, 59 hours): 142 μg/10 mL | CUMULATIVE AMOUNT OF COMPOUND DIFFUSED ACROSS SKIN [1, 10]: 0 μg/10 mL | CUMULATIVE AMOUNT OF COMPOUND DIFFUSED ACROSS SKIN [1, 11]: 11 μg/10 mL | CUMULATIVE AMOUNT OF COMPOUND DIFFUSED ACROSS SKIN ([1]; Table 3, saturated solution in tetraglycol, 50 hours): 61 μg/10 mL | CUMULATIVE AMOUNT OF COMPOUND DIFFUSED ACROSS SKIN ([1]; Table 3, saturated solution in tetraglycol, 59 hours): 81 μg/10 mL | relative order for membrane diffusion rate [1]: alpha-terpineol>tetraglycol

C[C@]12CC[C@H]3[C@@H](CCC4=CC(=O)CC[C@@]43C)[C@@H]1CC[C@@H]2O [Testosterone, testosterone]
CUMULATIVE AMOUNT OF COMPOUND DIFFUSED ACROSS SKIN [1, 4]: 0 μg/10 mL | CUMULATIVE AMOUNT OF COMPOUND DIFFUSED ACROSS SKIN ([1]; Table 3, saturated solution in alpha-terpineol, 6 hours): 605 μg/10 mL | CUMULATIVE AMOUNT OF COMPOUND DIFFUSED ACROSS SKIN ([1]; Table 3, saturated solution in alpha-terpineol, 12 hours): 1585 μg/10 mL | CUMULATIVE AMOUNT OF COMPOUND DIFFUSED ACROSS SKIN ([1]; Table 3, saturated solution in alpha-terpineol, 18 hours): 3043 μg/10 mL | CUMULATIVE AMOUNT OF COMPOUND DIFFUSED ACROSS SKIN [1, 5]: 4414 μg/10 mL | CUMULATIVE AMOUNT OF COMPOUND DIFFUSED ACROSS SKIN [1, 6]: 0 μg/10 mL | CUMULATIVE AMOUNT OF COMPOUND DIFFUSED ACROSS SKIN ([1]; Table 3, saturated solution in isostearic acid, 6 hours): 74 μg/10 mL | CUMULATIVE AMOUNT OF COMPOUND DIFFUSED ACROSS SKIN ([1]; Table 3, saturated solution in isostearic acid, 12 hours): 192 μg/10 mL | CUMULATIVE AMOUNT OF COMPOUND DIFFUSED ACROSS SKIN ([1]; Table 3, saturated solution in isostearic acid, 18 hours): 418 μg/10 mL | CUMULATIVE AMOUNT OF COMPOUND DIFFUSED ACROSS SKIN [1, 7]: 740 μg/10 mL | CUMULATIVE AMOUNT OF COMPOUND DIFFUSED ACROSS SKIN [1, 8]: 0 μg/10 mL | CUMULATIVE AMOUNT OF COMPOUND DIFFUSED ACROSS SKIN ([1]; Table 3, saturated solution in propylene glycol, 6 hours): 79 μg/10 mL | CUMULATIVE AMOUNT OF COMPOUND DIFFUSED ACROSS SKIN ([1]; Table 3, saturated solution in propylene glycol, 12 hours): 216 μg/10 mL | CUMULATIVE AMOUNT OF COMPOUND DIFFUSED ACROSS SKIN ([1]; Table 3, saturated solution in propylene glycol, 18 hours): 546 μg/10 mL | CUMULATIVE AMOUNT OF COMPOUND DIFFUSED ACROSS SKIN [1, 9]: 956 μg/10 mL | CUMULATIVE AMOUNT OF COMPOUND DIFFUSED ACROSS SKIN [1, 10]: 0 μg/10 mL | CUMULATIVE AMOUNT OF COMPOUND DIFFUSED ACROSS SKIN ([1]; Table 3, saturated solution in tetraglycol, 6 hours): 23 μg/10 mL | CUMULATIVE AMOUNT OF COMPOUND DIFFUSED ACROSS SKIN ([1]; Table 3, saturated solution in tetraglycol, 12 hours): 46 μg/10 mL | CUMULATIVE AMOUNT OF COMPOUND DIFFUSED ACROSS SKIN ([1]; Table 3, saturated solution in tetraglycol, 18 hours): 81 μg/10 mL | CUMULATIVE AMOUNT OF COMPOUND DIFFUSED ACROSS SKIN [1, 11]: 119 μg/10 mL | relative order for membrane diffusion rate [1]: alpha-terpineol>propylene glycol>isostearic acid>tetraglycol | CUMULATIVE AMOUNT OF COMPOUND DIFFUSED ACROSS SKIN ([1]; saturated solution in alpha-terpineol, 0 hours): 0 µg/mL | CUMULATIVE AMOUNT OF COMPOUND DIFFUSED ACROSS SKIN ([1]; saturated solution in alpha-terpineol, 6 hours): 605 µg/mL | CUMULATIVE AMOUNT OF COMPOUND DIFFUSED ACROSS SKIN ([1]; saturated solution in alpha-terpineol, 12 hours): 1585 µg/mL | CUMULATIVE AMOUNT OF COMPOUND DIFFUSED ACROSS SKIN ([1]; saturated solution in alpha-terpineol, 18 hours): 3043 µg/mL | CUMULATIVE AMOUNT OF COMPOUND DIFFUSED ACROSS SKIN ([1]; saturated solution in alpha-terpineol, 24 hours): 4414 µg/mL | CUMULATIVE AMOUNT OF COMPOUND DIFFUSED ACROSS SKIN ([1]; saturated solution in isostearic acid, 0 hours): 0 µg/mL | CUMULATIVE AMOUNT OF COMPOUND DIFFUSED ACROSS SKIN ([1]; saturated solution in isostearic acid, 6 hours): 74 µg/mL | CUMULATIVE AMOUNT OF COMPOUND DIFFUSED ACROSS SKIN ([1]; saturated solution in isostearic acid, 12 hours): 192 µg/mL | CUMULATIVE AMOUNT OF COMPOUND DIFFUSED ACROSS SKIN ([1]; saturated solution in isostearic acid, 18 hours): 418 µg/mL | CUMULATIVE AMOUNT OF COMPOUND DIFFUSED ACROSS SKIN ([1]; saturated solution in isostearic acid, 24 hours): 740 µg/mL | CUMULATIVE AMOUNT OF COMPOUND DIFFUSED ACROSS SKIN ([1]; saturated solution in propylene glycol, 0 hours): 0 µg/mL | CUMULATIVE AMOUNT OF COMPOUND DIFFUSED ACROSS SKIN ([1]; saturated solution in propylene glycol, 6 hours): 79 µg/mL | CUMULATIVE AMOUNT OF COMPOUND DIFFUSED ACROSS SKIN ([1]; saturated solution in propylene glycol, 12 hours): 216 µg/mL | CUMULATIVE AMOUNT OF COMPOUND DIFFUSED ACROSS SKIN ([1]; saturated solution in propylene glycol, 18 hours): 546 µg/mL | CUMULATIVE AMOUNT OF COMPOUND DIFFUSED ACROSS SKIN ([1]; saturated solution in propylene glycol, 24 hours): 956 µg/mL | CUMULATIVE AMOUNT OF COMPOUND DIFFUSED ACROSS SKIN ([1]; saturated solution in tetraglycol, 0 hours): 0 µg/mL | CUMULATIVE AMOUNT OF COMPOUND DIFFUSED ACROSS SKIN ([1]; saturated solution in tetraglycol, 6 hours): 23 µg/mL | CUMULATIVE AMOUNT OF COMPOUND DIFFUSED ACROSS SKIN ([1]; saturated solution in tetraglycol, 12 hours): 46 µg/mL | CUMULATIVE AMOUNT OF COMPOUND DIFFUSED ACROSS SKIN ([1]; saturated solution in tetraglycol, 18 hours): 81 µg/mL | CUMULATIVE AMOUNT OF COMPOUND DIFFUSED ACROSS SKIN ([1]; saturated solution in tetraglycol, 24 hours): 119 µg/mL

C#C[C@]1(O)CC[C@H]2[C@@H]3CCC4=CC(=O)CC[C@@H]4[C@H]3CC[C@@]21CC [levonorgestrel]
CUMULATIVE AMOUNT OF COMPOUND DIFFUSED ACROSS SKIN [2]: 0 μg/10 mL | relative order for membrane diffusion rate [3]: alpha-terpineol>isostearic acid>tetraglycol
